From patent publication US8088815B2, “Spiroindolinone pyrrolidines” (Hoffman-La Roche Inc., priority 2009, dated 2012)

Target: interaction between p53 and MDM2 proteins (Homo sapiens, UniProt Q00987)
Experiment: HTRF assay of inhibition of the p53-MDM2 interaction (GST-MDM2 / biotinylated p53 peptide)
Assay type: binding
Details: recombinant GST-tagged MDM2 and biotinylated p53 peptide, bsa:0.02%

Sequence of interaction between p53 and MDM2 proteins (Q00987 whole entry): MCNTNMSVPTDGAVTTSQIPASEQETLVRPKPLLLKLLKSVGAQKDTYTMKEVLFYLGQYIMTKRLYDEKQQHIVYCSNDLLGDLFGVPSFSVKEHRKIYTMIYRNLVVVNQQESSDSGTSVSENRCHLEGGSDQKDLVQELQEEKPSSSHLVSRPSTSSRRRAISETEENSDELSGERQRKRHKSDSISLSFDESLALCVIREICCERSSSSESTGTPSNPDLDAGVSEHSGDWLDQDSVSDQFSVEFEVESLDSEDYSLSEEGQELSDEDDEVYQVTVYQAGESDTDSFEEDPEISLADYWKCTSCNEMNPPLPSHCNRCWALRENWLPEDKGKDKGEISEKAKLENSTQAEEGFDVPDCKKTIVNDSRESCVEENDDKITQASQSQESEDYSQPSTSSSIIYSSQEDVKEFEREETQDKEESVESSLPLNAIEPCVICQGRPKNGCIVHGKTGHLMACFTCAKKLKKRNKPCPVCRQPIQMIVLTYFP

Row | Compound | IC50 [nM]
1 | CC(C)(C)C[C@@H]1N[C@@H](C(=O)Nc2cnc(C(N)=O)nc2)[C@H](c2cccc(Cl)c2F)[C@]12C(=O)Nc1cc(Cl)ccc12 (racemic) [Example 185, rac-(2′S,3′R,4′S,5′R)-6-chloro-4′-(3-chloro-2-fluoro-phenyl)-2′-(2,2-dimethyl-propyl)-2-oxo-1,2-dihydro-spiro[indole-3,3′-pyrrolidine]-5′-carboxylic acid (2-carbamoyl-pyrimidin-5-yl)-amide] | 16
2 | CC(C)(C)C[C@@H]1N[C@@H](C(=O)Nc2ccc(C#N)s2)[C@H](c2cccc(Cl)c2F)[C@]12C(=O)Nc1cc(Cl)ccc12 (racemic) [Example 187, rac-(2′S,3′R,4′S,5′R)-6-chloro-4′-(3-chloro-2-fluoro-phenyl)-2′-(2,2-dimethyl-propyl)-2-oxo-1,2-dihydro-spiro[indole-3,3′-pyrrolidine]-5′-carboxylic acid (5-cyano-thiophen-2-yl)-amide] | 15
3 | CC(C)(C)C[C@@H]1N[C@@H](C(=O)Nc2ccc(C(N)=O)s2)[C@H](c2cccc(Cl)c2F)[C@]12C(=O)Nc1cc(Cl)ccc12 (racemic) [Example 188, rac-(2′S,3′R,4′S,5′R)-6-chloro-4′-(3-chloro-2-fluoro-phenyl)-2′-(2,2-dimethyl-propyl)-2-oxo-1,2-dihydro-spiro[indole-3,3′-pyrrolidine]-5′-carboxylic acid (5-carbamoyl-thiophen-2-yl)-amide] | 8
4 | COc1cc(OCCO)ncc1NC(=O)[C@@H]1N[C@@H](CC(C)(C)C)[C@@]2(C(=O)Nc3cc(Cl)ccc32)[C@H]1c1cccc(Cl)c1F (racemic) [Example 192, rac-(2′S,3′R,4′S,5′R)-6-chloro-4′-(3-chloro-2-fluoro-phenyl)-2′-(2,2-dimethyl-propyl)-2-oxo-1,2-dihydro-spiro[indole-3,3′-pyrrolidine]-5′-carboxylic acid [6-(2-hydroxy-ethoxy)-4-methoxy-pyridin-3-yl]-amide] | 7

Results, then the compound that gave them:

Row | IC50 [nM] | Compound
5 | 39 | COc1cc(OCCO)ccc1NC(=O)[C@@H]1N[C@@H](CC(C)(C)C)[C@@]2(C(=O)Nc3c2ccc(Cl)c3F)[C@H]1c1cccc(Cl)c1F (racemic) [Example 179, rac-(2′S,3′R,4′S,5′R)-6-chloro-4′-(3-chloro-2-fluoro-phenyl)-2′-(2,2-dimethyl-propyl)-7-fluoro-2-oxo-1,2-dihydro-spiro[indole-3,3′-pyrrolidine]-5′-carboxylic acid [4-(2-hydroxy-ethoxy)-2-methoxy-phenyl]-amide]
6 | 17 | CC(C)(C)C[C@@H]1N[C@@H](C(=O)Nc2ccc(C#N)nc2)[C@H](c2cccc(Cl)c2F)[C@]12C(=O)Nc1cc(Cl)ccc12 (racemic) [Example 182, rac-(2′S,3′R,4′S,5′R)-6-chloro-4′-(3-chloro-2-fluoro-phenyl)-2′-(2,2-dimethyl-propyl)-2-oxo-1,2-dihydro-spiro[indole-3,3′-pyrrolidine]-5′-carboxylic acid (6-cyano-pyridin-3-yl)-amide]
7 | 7 | CC(C)(C)C[C@@H]1N[C@@H](C(=O)Nc2ccc(C(N)=O)nc2)[C@H](c2cccc(Cl)c2F)[C@]12C(=O)Nc1cc(Cl)ccc12 (racemic) [Example 183, rac-(2′S,3′R,4′S,5′R)-6-chloro-4′-(3-chloro-2-fluoro-phenyl)-2′-(2,2-dimethyl-propyl)-2-oxo-1,2-dihydro-spiro[indole-3,3′-pyrrolidine]-5′-carboxylic acid (6-carbamoyl-pyridin-3-yl)-amide]
8 | 55 | Cn1c(NC(=O)[C@@H]2N[C@@H](CC(C)(C)C)[C@@]3(C(=O)Nc4cc(Cl)ccc43)[C@H]2c2cccc(Cl)c2F)ccc1C(=O)OC(C)(C)C (racemic) [Example 194, rac-5-{[(2′S,3′R,4′S,5′R)-6-chloro-4′-(3-chloro-2-fluoro-phenyl)-2′-(2,2-dimethyl-propyl)-2-oxo-1,2-dihydro-spiro[indole-3,3′-pyrrolidine]-5′-carbonyl]amino}-1-methyl-1H-pyrrole-2-carboxylic acid tert-butyl ester]
